From ChEMBL document CHEMBL1201862, “PubChem BioAssay data set” (2004)
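1) Cells in 96-well plates. 2) Compound, 48 h, 5 concentrations. 3) Linear interpolation between surrounding doses. 4) Unreached endpoint = highest concentration. Abbreviation: GI50, concentration required for 50% inhibition of growth.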 The source made the active and inactive calls. Rule as the data show it: active = GI50 up to about 1.1 µM and inactive = higher.

Assays:
Test in all cases: DTP human tumour cell line panel, 48 h
[1] = test system: RPMI-8226
[2] = test system: HCT-116
[3] = test system: HL-60
[4] = test system: ACHN
[5] = test system: UACC-62
[6] = test system: HOP-62
[7] = test system: SK-MEL-2
[8] = test system: Malme-3M
[9] = test system: DMS-114
[10] = test system: HCC 2998
[11] = test system: SF-539
[12] = test system: KM12
[13] = test system: UACC-257
[14] = test system: SF-295
[15] = test system: NCI-H460
[16] = test system: OVCAR-4
[17] = test system: NCI-H23
[18] = test system: SF-268

Measured: GI50

CC(=O)CCC#Cc1ccccc1C(=O)C(C)=[N+]=[N-]
inactive: [1] 17.4 µM | [2] 13 µM | [3] 13.2 µM | [4] 39.5 µM | [5] 16.1 µM | [6] 71.3 µM | [7] 72.3 µM | [8] 19.6 µM | [9] 12.9 µM | [10] > 100 µM | [11] 97.3 µM | [12] 45 µM | [13] 53 µM | [14] 45 µM | [15] 37.4 µM | [16] 50.9 µM | [17] 36.1 µM | [18] 18.1 µM

COC(=O)C(Cc1nc2ccc(Cl)cc2nc1O)/C(=N/O)C(=O)Nc1cccc(Cl)c1C (configuration not stated)
inactive: [1] > 100 µM | [2] > 100 µM | [3] > 100 µM | [4] > 100 µM | [5] > 100 µM | [6] > 100 µM | [7] > 100 µM | [8] > 100 µM | [9] > 100 µM | [10] > 100 µM | [11] > 100 µM | [12] > 100 µM | [13] > 100 µM | [14] > 100 µM | [15] > 100 µM | [16] > 100 µM | [17] > 100 µM | [18] > 100 µM

CCOc1cccc2sc(N)nc12
inactive: [1] > 100 µM | [2] > 100 µM | [3] > 100 µM | [4] > 100 µM | [5] > 100 µM | [6] > 100 µM | [7] > 100 µM | [8] > 100 µM | [9] > 100 µM | [10] > 100 µM | [11] > 100 µM | [12] > 100 µM | [13] > 100 µM | [14] > 100 µM | [15] > 100 µM | [16] > 100 µM | [17] > 100 µM | [18] > 100 µM

COc1cc(C(=O)C/C(CCC(=O)Nc2ccc(Cl)cc2Cl)=N/NC(=O)C(N)=O)ccc1O
inactive: [1] > 100 µM | [2] > 100 µM | [3] > 100 µM | [4] > 100 µM | [5] 65.9 µM | [6] 79.6 µM | [7] > 100 µM | [8] > 100 µM | [9] > 100 µM | [10] > 100 µM | [11] > 100 µM | [12] 85.7 µM | [13] > 100 µM | [14] > 100 µM | [15] > 100 µM | [16] > 100 µM | [17] > 100 µM | [18] > 100 µM
